Measurements taken from patent publication US20050282755A1, “Compositions having antimicrobial activity and uses thereof” (priority 2004, published 2005).
In brackets after ≈: the same amount, converted by molar mass. Non-standard residues stand in square brackets, D forms with d. Residues, ends and D or L forms follow the SMILES beside them. *: point of attachment. d(hArg) = N=C(N)NCCCC[C@@H](N)C(=O)O; Palmitoyl = CCCCCCCCCCCCCCCC(=O)*; Lauroyl = CCCCCCCCCCCC(=O)*; Octanoyl = CCCCCCCC(=O)*

Tests used:
Format in all cases: cell-based
[1] = system: Staphylococcus aureus ATCC 29213; experiment: MIC, NCCLS M7-A6 broth microdilution, cation-adjusted Mueller Hinton broth (Table 9, no superscript); conditions: ATCC 29213
Summary of the method: (§1)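 Broth microdilution in cation-adjusted Mueller Hinton broth, log-phase inoculum giving 5×10^5 to 1×10^6 CFU/milliliter per well. Overnight incubation at 37° C. MIC taken as lowest peptide concentration with no visible turbidity versus a no-peptide control.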

Salmonella dublin (Lane) = experiment: MIC, NCCLS M7-A6 broth microdilution (Table 9, no superscript)
Summary of the method: as §1

[2] = system: Escherichia coli ATCC 25922; experiment: as above; conditions: ATCC 25922
Summary of the method: as §1

[3] = system: Staphylococcus epidermidis ATCC 12228; experiment: as above; conditions: ATCC 12228
Summary of the method: as §1

[4] = system: Pseudomonas aeruginosa ATCC 27853; experiment: as above; conditions: ATCC 27853
Summary of the method: as §1

## CCCCCCCCCCCC(=O)N[C@H](CCCNC(=N)N)C(=O)N[C@H](CO)C(=O)N[C@H](CCCNC(=N)N)C(=O)N[C@H](Cc1c[nH]c2ccccc12)C(=O)N[C@H](CCCNC(=N)N)C(=O)N[C@H](CC(=O)O)C(=O)N[C@@H](C(=O)N[C@H](C)C(=O)N[C@H](CCCNC(=N)N)C(=O)N[C@H](CC(N)=O)C(=O)N[C@H](CO)C(=O)N[C@H](CCSC)C(=O)N[C@H](CCCNC(=N)N)C(N)=O)C(C)C [Peptide 234, Lauryl-rsrwrdvarnsmr-NH2] (Lauroyl-[dR][dS][dR][dW][dR][dD][dV][dA][dR][dN][dS][dM][dR]-NH2)
[1]
  MIC S. aureus: 64 µg/mL (≈ 34.2 µM)
Salmonella dublin (Lane)
  MIC S. dublin: 64 µg/mL (≈ 34.2 µM)
[2]
  MIC E. coli: >64 µg/mL
[3]
  MIC S. epidermidis: 16 µg/mL (≈ 8.55 µM)
[4]
  MIC P. aeruginosa: >64 µg/mL

## CCCCCCCCCCCC(=O)N[C@H](CCCCNC(=N)N)C(=O)N[C@H](CO)C(=O)N[C@H](CCCCNC(=N)N)C(=O)N[C@H](Cc1c[nH]c2ccccc12)C(=O)N[C@H](CCCCNC(=N)N)C(=O)N[C@H](CC(=O)O)C(=O)N[C@@H](C(=O)N[C@H](C)C(=O)N[C@H](CCCCNC(=N)N)C(=O)N[C@H](CC(N)=O)C(=O)N[C@H](Cc1ccccc1)C(=O)N[C@H](CCSC)C(=O)N[C@H](CCCCNC(=N)N)C(N)=O)C(C)C [Peptide 159, Lauryl-xsxwxdvaxnfmx-NH2 x = D-homoarginine] (Lauroyl-[d(hArg)][dS][d(hArg)][dW][d(hArg)][dD][dV][dA][d(hArg)][dN][dF][dM][d(hArg)]-NH2)
[1]
  MIC S. aureus: 8 µg/mL (≈ 4 µM)
Salmonella dublin (Lane)
  MIC S. dublin: 64 µg/mL (≈ 32 µM)
[2]
  MIC E. coli: 16 µg/mL (≈ 7.99 µM)
[3]
  MIC S. epidermidis: 8 µg/mL (≈ 4 µM)
[4]
  MIC P. aeruginosa: 32 µg/mL (≈ 16 µM)

## CCCCCCCCCCCC(=O)N[C@H](CCCNC(=N)N)C(=O)N[C@H](Cc1c[nH]c2ccccc12)C(=O)N[C@H](CCCNC(=N)N)C(=O)N[C@H](CC(=O)O)C(=O)N[C@H](CC(C)C)C(=O)N[C@H](C)C(=O)N[C@H](CCCNC(=N)N)C(N)=O [Peptide 244, Lauryl-rwrdlar-NH2] (Lauroyl-[dR][dW][dR][dD][dL][dA][dR]-NH2)
[1]
  MIC S. aureus: 32 µg/mL (≈ 27.7 µM)
Salmonella dublin (Lane)
  MIC S. dublin: >64 µg/mL
[2]
  MIC E. coli: 64 µg/mL (≈ 55.5 µM)
[3]
  MIC S. epidermidis: 64 µg/mL (≈ 55.5 µM)
[4]
  MIC P. aeruginosa: >64 µg/mL

## CCCCCCCCCCCCCCCC(=O)N[C@H](CCCNC(=N)N)C(=O)N[C@H](CO)C(=O)N[C@H](CCCNC(=N)N)C(=O)N[C@H](Cc1c[nH]c2ccccc12)C(=O)N[C@H](CCCNC(=N)N)C(=O)N[C@H](CC(=O)O)C(=O)N[C@@H](C(=O)N[C@H](C)C(=O)N[C@H](CCCNC(=N)N)C(=O)N[C@H](CC(N)=O)C(=O)N[C@H](Cc1ccccc1)C(=O)N[C@H](CC(C)C)C(=O)N[C@H](CCCNC(=N)N)C(N)=O)C(C)C [Peptide 254, Palmityl-rsrwrdvarnflr-NH2] (Palmitoyl-[dR][dS][dR][dW][dR][dD][dV][dA][dR][dN][dF][dL][dR]-NH2)
[1]
  MIC S. aureus: 32 µg/mL (≈ 16.2 µM)
Salmonella dublin (Lane)
  MIC S. dublin: >64 µg/mL
[2]
  MIC E. coli: >64 µg/mL
[3]
  MIC S. epidermidis: 4 µg/mL (≈ 2.03 µM)
[4]
  MIC P. aeruginosa: 64 µg/mL (≈ 32.5 µM)

## CCCCCCCC(=O)N[C@H](CCCNC(=N)N)C(=O)N[C@H](CO)C(=O)N[C@H](CCCNC(=N)N)C(=O)N[C@H](Cc1c[nH]c2ccccc12)C(=O)N[C@H](CCCNC(=N)N)C(=O)N[C@H](CC(=O)O)C(=O)N[C@@H](C(=O)N[C@H](C)C(=O)N[C@H](CCCNC(=N)N)C(=O)N[C@H](CC(N)=O)C(=O)N[C@H](Cc1ccccc1)C(=O)N[C@H](CC(C)C)C(=O)N[C@H](CCCNC(=N)N)C(N)=O)C(C)C [Peptide 189, Octyl-rsrwrdvarnflr-NH2] (Octanoyl-[dR][dS][dR][dW][dR][dD][dV][dA][dR][dN][dF][dL][dR]-NH2)
[1]
  MIC S. aureus: 32 µg/mL (≈ 17.2 µM)
Salmonella dublin (Lane)
  MIC S. dublin: 8 µg/mL (≈ 4.31 µM)
[2]
  MIC E. coli: 16 µg/mL (≈ 8.62 µM)
[3]
  MIC S. epidermidis: 4 µg/mL (≈ 2.15 µM)
[4]
  MIC P. aeruginosa: 32 µg/mL (≈ 17.2 µM)
